Data as given in article PMC9518248, “Inhibition of Toxoplasma gondii by 1,2,4-triazole-based compounds: marked improvement in selectivity relative to the standard therapy pyrimethamine and sulfadiazine” (Journal of Enzyme Inhibition and Medicinal Chemistry, 2022).
In brackets after ≈: the same amount, converted by molar mass. Entries after “also recorded” stand apart in the source; their conditions may differ.

What was measured:
[1] = tested on: T. gondii RH-GFP; assay: Antiparasitic assay: T. gondii RH-GFP proliferation in Hs27 cells; assay type: cell-based, Toxoplasma gondii
[2] = Haemolytic activity determination; assay type: cell-based; details: 2% suspension of human red blood cells, human RBCs, 37 °C, 30 min, read-out: Haemolysis (%)
Protocol: (§1) Human red blood cells (RBCs) concentrate was obtained from the Regional Blood Donation and Transfusion Centre (Lublin, Poland). RBCs concentrate (5 mL) was washed three times with sterile PBS and centrifuged at 500 g for 3 min. […] The amount of free haemoglobin in supernatants was measured spectrophotometrically at 405 nm. Negative and positive controls were performed by incubating RBCs with sterile PBS and 0.1% Triton-X, respectively. Each experiment was run in triplicate.

[3] = tested on: Human red blood cells (RBCs); assay: Haemolytic activity determination; assay type: cell-based; details: at the concentration equal to its IC50Tg
Protocol: as §1

[4] = tested on: Human Hs27 cells; assay: Genotoxic activity, single cell gel electrophoresis (comet assay); assay type: cell-based; details: 24 h, concentration equal to IC50Tg
Protocol: All the procedures performed were in line with the manufacturer’s protocol. Human Hs27 cells, previously exposed for 24 h to the compound, were combined with liquefied low melting Agarose at 37 °C and transferred onto the OxiSelect comet slides. After storing for 15 min at 4 °C, the slides were immersed in a pre-chilled Lysis Buffer (for 45 min at 4 °C) and Alkaline Solution (for 30 min at 4 °C). Afterwards, the Alkaline Solution was replaced with pre-chilled TBE electrophoresis solution. After immersing for 5 min, the slides were put into the horizontal electrophoresis chamber and covered with TBE electrophoresis buffer. The electrophoresis was run for 15 min at 1 volt/cm. Finally, DNA was stained with Vista Green DNA Dye for 15 min at room temperature and observed under fluorescence microscope (Olympus BX63, Tokyo, Japan). The images of cells were captured using XM10 digital camera (Olympus). The DNA damage was measured quantitatively using OpenComet software. At least 50 randomly selected images were used in each analysis.

[5] = tested on: T. gondii tachyzoites of the RH-GFP strain; assay: Intracellular Toxoplasma tachyzoites proliferation assay (Assay B); assay type: cell-based, Toxoplasma gondii; details: 3 h infection, then 24 h treatment at 35.35, 70.70, 176.75 μg/mL; dose-dependent
[6] = tested on: Tyrosinase (TYR) from mushrooms; assay: Inhibition of tyrosinase activity assay; assay type: biochemical; details: for Diphenolase activity: substrate DOPA; for Monophenolase activity: substrate L-tyrosine
Protocol: Tyrosinase (TYR) from mushrooms ([…], Sigma) was used in our study. We analysed inhibition of 20 b on both monophenolase and diphenolase activity of TYR. All compound dilutions, both substrate L-tyrosine (Tyr) and levodopa (DOPA), and TYR were prepared in 50 mM phosphate buffer (pH 6.5). […] Firstly, the substrate and compound were added to a 96-well flat-bottom plate (Nunc MaxiSorp^TM, Roskilde, Denmark), next TYR was added and the initial absorbance (A0) was measured spectrophotometrically at 492 nm. Then, the plate was incubated at 25 °C for 30 min. After incubation, the amount of dopachrome produced in the reaction mixture was determined spectrophotometrically at 492 nm (A30) using the multi-mode microplate reader SpectraMax® i3. As 100% TYR activity samples without addition of compound, were used. The average results from three experiments are shown.

[7] = PAMPA-BBB assay; assay type: in vitro ADME
Protocol: BBB permeability of 20b was investigated using a parallel artificial membrane permeability assay (PAMPA) method. The PAMPA system, consisted of a 96-well microfilter plate, was divided into two chambers: a donor at the bottom and an acceptor at the top, separated by a 120-μm-thick microfilter disc coated with BBB lipid solution (Pion, Inc., Billerica, MA). The solutions of 20b were prepared in dimethylsulphoxide (DMSO) at 4 mg/mL concentration and then diluted with Prisma buffer (pH = 7.4) to obtain the donor drug solution with the final nominal concentration of 20 μg/mL. Then, 180 μL of the donor solution were added to the donor wells. Subsequently, each filter membrane of the top plate was coated with 5 μL BBB-1 lipid solution (Pion Inc.) and the acceptor well was filled with 200 μL of Brain Sink Buffer (BSB). The acceptor plate and the donor plate were sandwiched together and incubated at 37 °C for 180 min.
The permeability coefficient value (Pe) was calculated by using the following equation: Pe=−ln(1−CA/Cequilibrium)/S×(1/VD+1/VA)×t where VD – donor volume, VA – acceptor volume, Cequilibrium – equilibrium concentration, Cequilibrium=CD×VD+CA×VA/VD+VA, CD – donor concentration, CA – acceptor concentration, S – membrane area, and t – incubation time (in seconds).

[8] = Cytotoxicity against glioblastoma cells (MTT); assay type: cell-based, human; details: human, T98G glioblastoma cells, MTT, read-out: Viability of T98G cells (% of control ± SD)
Protocol: (§2) Cytotoxic effect of 20b was evaluated using glioblastoma (T98G) cells obtained from the American Type Culture Collection (Manassas, VA). Cells were cultured in Dulbecco’s Modified Eagle’s Medium (DMEM-high glucose) (Sigma Aldrich, St. Louis, MO), supplemented with 10% heat inactivated FBS, penicillin (100 U/mL), and streptomycin (100 μg/mL) (Sigma Aldrich, St. Louis, MO). Cells were maintained in a humidified atmosphere of 5% CO2 and 95% air at 37 °C. Stock solutions of the investigated compounds (20b and temozolomide) were prepared by dissolving solid substances in a sterile DMSO. T98G glioblastoma cells were seeded into 96-well sterile plates at a density of 1 × 10^5cells/mL. After 24 h of incubation, the medium was removed from each well and then cells were incubated for the next 24 h with different concentrations of the investigated compounds (10, 25, 35, 50, and 100 µg/mL) in the medium containing 2% FBS. Viability of T98G cells was evaluated using MTT assay, whose principle is based on the conversion of 3–(4,5-dimethylthiazol-2-yl)-2,5-diphenyltetrazolium bromide (MTT) into dark-blue formazan crystals. In brief, after 24 h incubation of cells with varying concentrations of the tested compounds, culture medium was removed from the plate. Cells were washed with PBS, and then 100 µL of medium containing 10% MTT solution (5 mg/mL) was added to each well. After 3 h incubation, 100 µL (per well) of 10% SDS buffer solution was added to solubilise formazan crystals. After overnight incubation the absorbance was measured at 570 nm using a microplate reader (Epoch, BioTek Instruments, Winooski, VT). Experiments were repeated three times, and the measurements in each experiment were run in quadruplicate. Viability of the investigated cells was expressed as % of the viability of the untreated cells.

[9] = tested on: human glioblastoma T98G cells; assay: Cytotoxicity against glioblastoma cells (MTT); assay type: cell-based; details: 24 h
Protocol: as §2

[10] = tested on: T. gondii tachyzoites of the RH-GFP strain; assay: Toxoplasma tachyzoites invasion assay (Assay A); details: 3 h pre-treatment at 35.35, 70.70 and 176.75 μg/mL, then 24 h treatment-free
Protocol: The Hs27 cells were cultured on Lab-Tek™ 4-well Chamber Slides (Nunc) (5 × 10^4 cells/500 μL per well).
Then, the cells were washed to remove extracellular parasites and parasite culture medium (without any compounds) was added for 24 h.
In both assays as the control, Hs27 cells were infected, but not treated. After subsequent 24 h of incubation (Assay A and B), the slides were washed with sterile PBS, fixed with formaldehyde solution (252549, Sigma-Aldrich), 3.7% in PBS for 20 min, and stained with DAPI for 10 min (1 mg/mL, ThermoFisher Scientific, Waltham, MA). Microscopic analysis of 100 cells in turn, comprised of counting the infected cell ratio and tachyzoites per each parasitophorous vacuoles of infected cell, was performed using a fluorescent microscope (Axio Scope.A1, Carl Zeiss, Germany) at a magnification ×1000. For image processing ZEISS ZEN Microscope Software version 3.1 (Oberkochen, Germany) was used. Three independent experiments on triplicate chamber slides using the same conditions for both assays were performed.

[11] = 1 µM, % of activity without compound

COc1ccc(-n2c(-c3[nH]cnc3C)n[nH]c2=S)cc1 [20b]
selectivity (SI) relative to PYR ([1]; SI of compound vs SI of PYR): 11 fold | selectivity (SI) relative to SDZ ([1]; SI of compound vs SI of SDZ): 160 fold | selectivity (SI) relative to TRI ([1]; SI of compound vs SI of TRI): 4 fold | IC50 ([1]; Toxoplasma gondii, T. gondii RH-GFP in Hs27 cells, 96 h, values above highest tested concentration extrapolated, read-out: IC50Tg): 35.4 µg/mL (≈ 123 µM) | SI ([1]; selectivity index, CC30 (L929)/IC50Tg): 70.72 | hemolysis at 30 min, 5 µg/mL ([2]; 5 µg/mL): 0.038 ± 0.007% | hemolysis at 30 min, 10 µg/mL ([2]; 10 µg/mL): 0.104 ± 0.042% | hemolysis at 30 min, 35 µg/mL ([2]; 35 µg/mL): 0.183 ± 0.086% | haemolytic activity [3]: no specific haemolytic activity; also recorded: no specific haemolytic changes | % DNA in comet tail [4]: 3.38 ± 0.45% | genotoxic effect (DNA damage) [4]: no induction of DNA damage; also recorded: no genotoxic effect | intracellular proliferation: size of PV and number of tachyzoites per PV [5]: significant reduction in both size of the PV and number of intra vacuolar tachyzoites | Diphenolase activity [6, 11]: 94.6 ± 3.3% | Monophenolase activity [6, 11]: 101.76 ± 4.69% | Diphenolase activity ([6]; 10 µM): 99.6 ± 0.7% | Monophenolase activity ([6]; 10 µM): 99.01 ± 1.79% | Diphenolase activity ([6]; 25 µM): 92.7 ± 1.7% | Monophenolase activity ([6]; 25 µM): 92.97 ± 2.54% | Diphenolase activity ([6]; 50 µM): 91.2 ± 1.2% | Monophenolase activity ([6]; 50 µM): 90.66 ± 4.29% | Diphenolase activity ([6]; 100 µM): 75.3 ± 7.8% | Monophenolase activity ([6]; 100 µM): 70.81 ± 2.18% | Diphenolase activity ([6]; 200 µM): 52.7 ± 6.8% | Monophenolase activity ([6]; 200 µM): 46.79 ± 4.31% | Diphenolase activity ([6]; 400 µM): 25.7 ± 12.8% | Monophenolase activity ([6]; 400 µM): 23.09 ± 8.35% | inhibitory effect on tyrosinase activity ([6]; at concentrations below 50 µM): < 10% | BBB permeation classification ([7]; CNS+ if Pe > 5.19, CNS− if Pe < 2.07 (× 10^−6 cm·s^−1)): centrally active | Papp at 180 min, 20 μg/mL ([7]; pH 7.4, 37 °C, 180 min, read-out: permeability coefficient Pe): 34.9 ± 2.73 ×10⁻⁶ cm/s | viability at 24 h, 10 µg/mL ([8]; 10 µg/mL): 94.2 ± 2.06% | viability at 24 h, 25 µg/mL ([8]; 25 µg/mL): 92 ± 3.27% | viability at 24 h, 35 µg/mL ([8]; 35 µg/mL): 87.15 ± 0.55% | viability at 24 h, 50 µg/mL ([8]; 50 µg/mL): 82.1 ± 1.73% | viability at 24 h, 100 µg/mL ([8]; 100 µg/mL): 76.26 ± 0.74% | reduction of T98G cell viability ([9]; 10 µg/mL): ~6% | reduction of T98G cell viability ([9]; 100 µg/mL): ~24% | parasite invasion: percentage of infected cells [10]: did not cause significant reductions in percentage of infected cells
